Measured values reported in patent publication US10722523B2, “Chemoimmunotherapy for epithelial cancer” (THE REGENTS OF THE UNIVERSITY OF CALIFORNIA, priority 2015, dated 2020).

Key:
[1] = test system: Myc-Cap (MC) cells; assay: Cell death and autophagy of Myc-Cap cells in vitro (Annexin V/PI, LC3A flow cytometry); assay type: cell-based, mouse; details: 24 hrs, both at 20 µM
Description: All results are means±s.e.m.
For adoptive T cell transfer (ATCT) CD8^+ T cells were isolated from single cell suspensions, prepared from spleens and lymph nodes as described above, using CD8α-specific microbeads and MACS-columns (both Miltenyi Biotec GmbH, Bergisch Gladbach, Germany), and 5×10^6 CD8^+ T cells were transferred intraperitoneally (i.p.; FIG. 14a-j). For adoptive B cell transfer (ABCT), B cells (B220^+/CD19^+) were isolated from single cell suspensions prepared from spleens using CD19- and B220-specific microbeads and MACS-columns, and 5×10^6 B cells were transferred i.p. (FIG. 4g-h, FIG. 12n,o). For adoptive splenocytes transfer (ACT), single cell suspensions prepared from spleens were transferred i.p., with one total spleen injected per mouse. Labelling with 5-(and 6-) carboxyfluorescein diacetate succinimidyl ester (CFSE; Molecular Probes, Eugene, Oreg.) was done according to manufacturer's protocol. 5×10^6 CD8^+ T cells or 7×10^6 B cells were transferred (equal to one spleen per mouse; FIG. 5a-i and FIG. 14k-q). For combined adoptive B and T cell transfer (FIG. 5j-1, FIG. 14r-t), T cells were isolated from WT-FVB mice immunized with a Myc-Cap cell lysate as previously described^10. […] The extent of cell death was determined by flow cytometry, showing that more than 90% of cells were positive for Annexin V and PI. The dead cells were injected subcutaneously (s.c.) into WT-FVB mice. Seven days later, T cells were isolated from single cell suspensions of spleen and LN using a Pan T cell isolation Kit (Miltenyi Biotec). B cells were isolated from spleens of naïve FVB-WT or FVB-Tgfbr2^ΔB mice using a Pan B cell isolation kit (Miltenyi Biotec). MC-tumor bearing Rag1^−/− mice received 5×10^6 T cells with or without 5×10^6 B cells (98% pure) from WT or Tgfbr2^ΔB mice. Purity was analyzed on a Beckman Coulter Cyan ADP flow cytometer and was always >98%.

[2] = test system: Myc-Cap (MC) tumors; assay: s.c. Myc-Cap (MC) prostate tumor model; assay type: in vivo, mouse; details: 6 mg/kg
Description: All TRAMP mice, their derivatives and s.c. Myc-Cap transplantation were in the FVB genetic background and their basic immune parameters are shown in FIG. 15a-m. For s.c. TRAMP-C2 tumors, C57BL/6 mice were used. In both s.c. tumors, 2-3×10^6 cells/mouse were transplanted. More detailed information is as follows.
Mouse treatment studies were “matched design control trials.” Accordingly, mice were randomly chosen and paired based on sex (male), age (FIG. 6a) and tumor size. For transplanted tumor models, tumor size was defined by the median tumor volume (e.g. 400 mm^3, for late treatments, FIG. 6a,f). For TRAMP transgenic tumor models, treatment decisions were made based on age and mice were randomly chosen including a control littermate. An identification code was assigned to each tumor-bearing mouse both in the transplanted and transgenic models, and the investigators were blinded to treatment allocation at the time of tumor volume measurement, autopsy and analysis.
2×10^6 Myc-Cap^11 or 3×10^6 TRAMP-C2^12 cells (purchased from ATCC) were s.c. injected into the right flank. Tumors were measured every 2-3 days using a caliper. Tumor volumes were calculated as width^2×length/2.
B cells were depleted as previously described^13. Mice were weekly injected (i.p.) with a mixture of monoclonal antibodies, each at 150 μg/mouse: rat anti-mouse CD19 (clone 1D3), rat anti-mouse B220 (clone RA36B2), and mouse anti-mouse CD22 (clone CY34). After 48 hrs, the mice were injected with a secondary antibody (mouse anti-rat kappa chain; GeneTex) at 150 μg/mouse. In addition, mice were injected weekly, but not on the same day, with 250 μg/mouse rat anti-mouse CD20 (Genentech). Rat anti-mouse IgG2a and IgG1 were used as isotype controls. Mice were treated for 3 weeks in total (FIG. 1g; FIG. 7i-p). […]

N.N.[Cl][Pt][Cl] [cisplatin]
apoptotic cell death of MC cells (Annexin V, propidium iodide) [1]: induced apoptotic cell death
regression of MC tumors raised in Jh−/− mice ([2]; LD, 3 weekly cycles, tumors 400 mm3): ineffective
immunogenic activity of low dose treatment ([2]; MC tumors): devoid of immunogenic activity
